# Reference: BindingDB's records for patent US9273014 (Bristol-Myers Squibb Co., 2016)
# Molecular target: Neurogenic locus notch homolog protein 3 (Human, UniProt Q9UM47)
# Assay: Biological Assay
# Sequence of Neurogenic locus notch homolog protein 3 (Q9UM47 whole entry): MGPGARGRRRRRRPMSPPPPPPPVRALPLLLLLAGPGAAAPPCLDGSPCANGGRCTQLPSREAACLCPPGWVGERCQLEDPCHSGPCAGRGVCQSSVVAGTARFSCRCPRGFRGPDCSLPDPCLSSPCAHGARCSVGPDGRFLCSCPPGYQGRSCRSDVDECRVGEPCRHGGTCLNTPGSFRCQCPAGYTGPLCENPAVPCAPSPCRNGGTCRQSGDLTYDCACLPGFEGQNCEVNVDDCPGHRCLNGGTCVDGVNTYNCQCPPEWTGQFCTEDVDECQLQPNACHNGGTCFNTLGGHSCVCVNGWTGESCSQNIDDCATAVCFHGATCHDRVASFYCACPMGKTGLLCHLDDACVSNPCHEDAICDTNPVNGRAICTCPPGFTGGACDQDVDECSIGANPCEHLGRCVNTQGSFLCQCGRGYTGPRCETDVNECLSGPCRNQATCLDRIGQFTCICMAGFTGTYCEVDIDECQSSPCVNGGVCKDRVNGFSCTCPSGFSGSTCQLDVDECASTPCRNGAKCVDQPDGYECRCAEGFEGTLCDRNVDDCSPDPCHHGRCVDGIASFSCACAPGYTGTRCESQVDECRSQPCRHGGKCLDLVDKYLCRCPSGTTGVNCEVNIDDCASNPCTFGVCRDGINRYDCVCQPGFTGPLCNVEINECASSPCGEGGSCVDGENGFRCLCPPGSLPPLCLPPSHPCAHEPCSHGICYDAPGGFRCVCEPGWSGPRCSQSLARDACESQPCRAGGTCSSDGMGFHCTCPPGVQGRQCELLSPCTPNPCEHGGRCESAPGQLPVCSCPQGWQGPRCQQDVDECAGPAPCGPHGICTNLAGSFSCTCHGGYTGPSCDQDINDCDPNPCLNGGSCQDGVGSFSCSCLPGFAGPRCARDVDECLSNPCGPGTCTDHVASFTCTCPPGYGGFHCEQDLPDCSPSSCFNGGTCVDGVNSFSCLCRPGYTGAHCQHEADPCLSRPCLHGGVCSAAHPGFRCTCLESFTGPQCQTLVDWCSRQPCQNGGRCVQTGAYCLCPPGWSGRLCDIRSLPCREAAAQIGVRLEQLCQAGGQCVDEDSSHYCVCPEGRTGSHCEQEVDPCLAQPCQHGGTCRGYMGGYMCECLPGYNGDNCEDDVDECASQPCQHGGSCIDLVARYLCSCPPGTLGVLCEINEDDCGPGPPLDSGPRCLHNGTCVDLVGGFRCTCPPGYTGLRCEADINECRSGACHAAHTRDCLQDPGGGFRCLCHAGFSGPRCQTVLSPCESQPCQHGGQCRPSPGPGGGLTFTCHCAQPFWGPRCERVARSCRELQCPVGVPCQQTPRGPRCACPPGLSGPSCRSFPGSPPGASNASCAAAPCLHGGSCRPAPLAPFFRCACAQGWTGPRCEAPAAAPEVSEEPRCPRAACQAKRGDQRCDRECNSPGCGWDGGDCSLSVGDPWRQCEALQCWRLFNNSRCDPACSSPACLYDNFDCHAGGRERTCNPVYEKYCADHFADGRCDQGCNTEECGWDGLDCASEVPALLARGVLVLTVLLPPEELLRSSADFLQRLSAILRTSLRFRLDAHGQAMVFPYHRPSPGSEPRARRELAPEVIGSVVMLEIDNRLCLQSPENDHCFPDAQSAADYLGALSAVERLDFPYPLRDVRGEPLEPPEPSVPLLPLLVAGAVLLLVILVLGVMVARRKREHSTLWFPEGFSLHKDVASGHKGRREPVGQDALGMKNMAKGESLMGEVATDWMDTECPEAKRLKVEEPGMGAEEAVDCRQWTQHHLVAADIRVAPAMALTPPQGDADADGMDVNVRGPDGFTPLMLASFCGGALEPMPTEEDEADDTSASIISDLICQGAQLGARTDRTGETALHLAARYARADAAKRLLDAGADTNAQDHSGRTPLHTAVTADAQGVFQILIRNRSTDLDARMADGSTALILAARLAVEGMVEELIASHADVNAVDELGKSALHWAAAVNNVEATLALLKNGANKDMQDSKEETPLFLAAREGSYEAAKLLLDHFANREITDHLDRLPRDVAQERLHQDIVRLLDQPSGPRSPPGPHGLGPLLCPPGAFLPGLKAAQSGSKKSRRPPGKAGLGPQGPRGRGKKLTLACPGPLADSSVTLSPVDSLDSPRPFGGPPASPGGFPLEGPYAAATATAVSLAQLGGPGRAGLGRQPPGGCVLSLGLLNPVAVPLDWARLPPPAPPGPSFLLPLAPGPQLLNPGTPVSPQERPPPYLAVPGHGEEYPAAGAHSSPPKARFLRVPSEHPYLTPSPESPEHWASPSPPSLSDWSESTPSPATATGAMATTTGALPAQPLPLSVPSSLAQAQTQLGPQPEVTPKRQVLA
row,SMILES,IC50 [nM]
1,"CC(C)c1cccc2c1NC(=O)[C@@H](NC(=O)[C@H](CCC(F)(F)F)[C@H](CCC(F)(F)F)C(N)=O)N=C2c1ccccc1 [US9273014, 13]",4.9
2,"COc1cccc2c1NC(=O)[C@@H](NC(=O)[C@H](CCC(F)(F)F)[C@H](CCC(F)(F)F)C(N)=O)N=C2c1cccc(C)c1 [US9273014, 29]",5.7
